# Measurements: patent US20090069320A1, “Substituted 4-Amino-Quinazoline Compounds with Metabotropic Glutamate Receptor Regulating Activity and Uses Thereof” (Gruenenthal GmbH, priority 2006, published 2009)
# Target: T1, mGluR5 receptor (Sus scrofa, UniProt I3LUI7)
# T1 construct: 450 μg of protein from brain homogenate with 5 nM ^3[H]-MPEP; from tissue; host or cells: pig brain halves without medulla, cerebellum and pons
# Test: [3H]-MPEP mGluR5 receptor binding assay (pig brain homogenate)
# Settings: 5 nM [3H]-MPEP, read-out: IC50 mGluR5 Receptor (pig) [^3H]-MPEP Bond
# Method in brief: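 Radioligand displacement of 5 nM [3H]-MPEP from pig brain homogenate (450 μg protein; medulla, cerebellum and pons removed) in 20 mM Hepes pH 8.0. Compounds were tested at 10 μM, incubated 60 min at room temperature, then filtered and counted by scintillation. Non-specific binding was defined with 10 μM MPEP.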
# T1 sequence (I3LUI7 19-1212): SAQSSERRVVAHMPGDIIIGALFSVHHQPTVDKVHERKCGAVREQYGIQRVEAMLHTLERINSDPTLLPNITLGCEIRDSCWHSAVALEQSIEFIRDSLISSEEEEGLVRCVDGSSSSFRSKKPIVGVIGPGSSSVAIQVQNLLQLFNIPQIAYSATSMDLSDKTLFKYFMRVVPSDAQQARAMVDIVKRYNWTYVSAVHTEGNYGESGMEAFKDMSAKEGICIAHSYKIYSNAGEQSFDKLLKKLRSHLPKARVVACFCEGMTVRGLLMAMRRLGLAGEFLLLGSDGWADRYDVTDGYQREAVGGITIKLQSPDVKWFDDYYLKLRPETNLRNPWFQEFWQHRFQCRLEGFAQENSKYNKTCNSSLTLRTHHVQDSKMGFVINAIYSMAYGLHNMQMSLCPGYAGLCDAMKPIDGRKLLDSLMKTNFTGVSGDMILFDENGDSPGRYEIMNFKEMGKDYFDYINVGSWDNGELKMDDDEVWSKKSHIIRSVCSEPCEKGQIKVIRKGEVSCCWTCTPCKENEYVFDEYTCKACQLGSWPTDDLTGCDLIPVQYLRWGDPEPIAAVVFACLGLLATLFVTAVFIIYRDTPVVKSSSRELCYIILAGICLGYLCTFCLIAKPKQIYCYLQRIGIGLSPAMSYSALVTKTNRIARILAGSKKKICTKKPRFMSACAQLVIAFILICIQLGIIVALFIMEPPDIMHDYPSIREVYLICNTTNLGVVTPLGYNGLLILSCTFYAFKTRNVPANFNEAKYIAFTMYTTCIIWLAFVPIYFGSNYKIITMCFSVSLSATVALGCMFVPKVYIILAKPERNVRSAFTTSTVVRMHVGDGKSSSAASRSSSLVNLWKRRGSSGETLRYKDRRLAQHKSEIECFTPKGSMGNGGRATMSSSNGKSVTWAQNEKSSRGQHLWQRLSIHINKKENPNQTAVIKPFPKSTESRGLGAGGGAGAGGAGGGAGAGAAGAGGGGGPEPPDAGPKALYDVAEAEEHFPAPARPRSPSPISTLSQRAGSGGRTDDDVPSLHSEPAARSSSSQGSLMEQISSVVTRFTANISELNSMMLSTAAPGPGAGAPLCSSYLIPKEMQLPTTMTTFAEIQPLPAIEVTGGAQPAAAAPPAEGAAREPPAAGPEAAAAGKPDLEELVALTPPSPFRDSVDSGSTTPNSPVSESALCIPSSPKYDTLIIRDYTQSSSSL
row,IC50 [nM],Compound
1,4620,"CC(=O)N(Cc1cccc(-c2ccc3ncnc(NC4CC4)c3c2)n1)C1CC1 [Example 890, N-cyclopropyl-N-((6-(4-(cyclopropylamino)quinazolin-6-yl)pyridin-2-yl)methyl)acetamide]"
2,2010,"Fc1ccc(-c2ccc3ncnc(NC4CC4)c3c2)cc1CNC1CC1 [Example 299, N-cyclopropyl-6-(3-((cyclopropylamino)methyl)-4-fluorophenyl)quinazoline-4-amine]"
3,400,"CC1CCC(=O)N1Cc1cccc(-c2ccc3ncnc(NC4CC4)c3c2)c1 (centres unmarked) [Example 885, 1-(3-(4-(cyclopropylamino)quinazolin-6-yl)benzyl)-5-methylpyrrolidine-2-one]"
4,5360,"CC(=O)N(C)Cc1cccc(-c2ccc3ncnc(NC4CC4)c3c2)c1 [Example 221, N-[3-(4-cyclopropylamino-quinazolin-6-yl)-benzyl]-N-methyl-acetamide]"
5,80,"c1cc(CN(c2nccs2)C2CC2)cc(-c2ccc3ncnc(NC4CC4)c3c2)c1 [Example 892, N-cyclopropyl-N-(3-(4-(cyclopropylamino)quinazolin-6-yl)benzyl)thiazole-2-amine]"

# Same assay, conditions: 10 μM compound, 5 nM [3H]-MPEP
row,% Inhibition of mGluR5 Receptor (pig) [^3H]-MPEP Bond at 10 μM [%],Compound
1,84,"O=C(c1cccnc1)N(Cc1cc(-c2ccc3ncnc(NC4CC4)c3c2)ccc1Cl)C1CC1 [Example 770, N-(2-chloro-5-(4-(cyclopropylamino)quinazolin-6-yl)benzyl)-N-cyclopropyl nicotinamide]"
2,53,"O=S(=O)(c1c(F)c(F)c(F)c(F)c1F)N(Cc1cc(-c2ccc3ncnc(NC4CC4)c3c2)ccn1)C1CC1 [Example 848, N-cyclopropyl-N-((4-(4-(cyclopropylamino)quinazolin-6-yl)pyridin-2-yl)methyl)-2,3,4,5,6-pentafluorobenzole sulfonamide]"
3,88,"CC(C)(C)Nc1ncnc2ccc(-c3ccc(F)c(CN(C(=O)c4cccs4)C4CC4)c3)cc12 [Example 819, N-(5-(4-(tert-butylamino)quinazolin-6-yl)-2-fluorobenzyl)-N-cyclopropyl thiophene-2-carboxamide]"

# Same assay, conditions: 10 μM compound, 5 nM [3H]-MPEP, read-out: % Inhibition of mGluR5 Receptor (pig) [^3H]-MPEP Bond at 10 μM
row,inhibition at 10 µM [%],Compound
1,47,"CCCN(Cc1cccc(-c2ccc3ncnc(Nc4ccccc4)c3c2)c1)C(=O)c1cccs1 [Example 116, thiophene-2-carboxylic acid [3-(4-phenylamino-quinazolin-6-yl)-benzyl]-propyl-amide]"
2,0,"CC(C)(C)OC(=O)NCc1cccc(-c2ccc3ncnc(NC4CC4)c3c2)c1 [Example 295, tert-butyl 3-(4-(cyclopropylamino)quinazolin-6-yl)benzylcarbamate]"
3,78,"Cc1nc(NC2CC2)c2cc(-c3ccc(F)c(CN(C(=O)CCc4ccccc4)C4CC4)c3)ccc2n1 [Example 601, N-cyclopropyl-N-(5-(4-(cyclopropylamino)-2-methylquinazolin-6-yl)-2-fluorobenzyl)-3-phenylpropanamide]"
4,40,"CNc1ncnc2ccc(-c3cccc(CN(C(=O)c4ccno4)c4ccccc4F)c3)cc12 [Example 671, N-(2-fluorophenyl)-N-(3-(4-(methylamino)quinazolin-6-yl)benzyl)isoxazole-5-carboxamide]"
5,98,"O=C(c1ccncc1)N(Cc1cc(-c2ccc3ncnc(NC4CC4)c3c2)ccc1F)C1CC1 [Example 436, N-cyclopropyl-N-(5-(4-(cyclopropylamino)quinazolin-6-yl)-2-fluorobenzyl)isonicotinamide]"
6,90,"O=C(c1ccccc1Br)N(Cc1cccc(-c2ccc3ncnc(NC4CC4)c3c2)c1)C1CC1 [Example 157, 2-bromo-N-cyclopropyl-N-[3-(4-cyclopropylamino-quinazolin-6-yl)-benzyl]-benzamide]"
7,73,"O=S(=O)(c1cccc2cccnc12)N(Cc1cc(-c2ccc3ncnc(NC4CC4)c3c2)ccn1)C1CC1 [Example 812, N-cyclopropyl-N-((4-(4-(cyclopropylamino)quinazolin-6-yl)pyridin-2-yl)methyl)quinoline-8-sulfonamide]"
8,53,"CC(=O)N(C)Cc1cc(-c2ccc3ncnc(NCc4ccccc4)c3c2)ccc1F [Example 595, N-(5-(4-(benzylamino)quinazolin-6-yl)-2-fluorobenzyl)-N-methylacetamide]"
9,79,"O=C(Cc1ccccc1)N(Cc1cccc(-c2cc(F)c3ncnc(NC4CC4)c3c2)c1)C1CC1 [Example 670, N-cyclopropyl-N-(3-(4-(cyclopropylamino)-8-fluoroquinazolin-6-yl)benzyl)-2-phenylacetamide]"
10,40,"CC(=O)N(CC#N)Cc1cccc(-c2ccc3ncnc(NC4CC4)c3c2)c1 [Example 200, N-cyanomethyl-N-[3-(4-cyclopropylamino-quinazolin-6-yl)-benzyl]-acetamide]"
11,43,"O=C(CCc1ccccc1)N(Cc1cc(-c2ccc3ncnc(NC4CC4)c3c2)ccn1)C1CC1 [Example 847, N-cyclopropyl-N-((4-(4-(cyclopropylamino)quinazolin-6-yl)pyridin-2-yl)methyl)-3-phenylpropanamide]"
12,84,"Cc1cc(C(=O)N(Cc2cc(-c3ccc4ncnc(NC(C)(C)C)c4c3)ccc2F)C2CC2)n(C)n1 [Example 831, N-(5-(4-(tert-butylamino)quinazolin-6-yl)-2-fluorobenzyl)-N-cyclopropyl-1,3-dimethyl-1H-pyrazole-5-carboxamide]"
13,95,"Cc1cc2ncnc(NC3CC3)c2cc1-c1cccc(CN(C(=O)c2ccccc2)C2CC2)c1 [Example 714, N-cyclopropyl-N-(3-(4-(cyclopropylamino)-7-methylquinazolin-6-yl)benzyl)benzamide]"
14,87,"CC(=O)N(Cc1nc(-c2ccc3ncnc(NC4CC4)c3c2)cs1)C1CC1 [Example 903, N-cyclopropyl-N-((4-(4-(cyclopropylamino)quinazolin-6-yl)thiazole-2-yl)methyl)acetamide]"
15,76,"CNc1ncnc2ccc(-c3ccc(F)c(CN(C)S(=O)(=O)C(C)C)c3)cc12 [Example 578, N-(2-fluoro-5-(4-(methylamino)quinazolin-6-yl)benzyl)-N-methylpropane-2-sulfonamide]"
16,88,"COCC(=O)N(Cc1cc(-c2ccc3ncnc(NC4CC4)c3c2)ccc1Cl)C1CC1 [Example 801, N-(2-chloro-5-(4-(cyclopropylamino)quinazolin-6-yl)benzyl)-N-cyclopropyl-2-methoxyacetamide]"
17,92,"O=S(=O)(Cc1ccccc1)N(Cc1cc(-c2ccc3ncnc(NC4CC4)c3c2)ccn1)C1CC1 [Example 805, N-cyclopropyl-N-((4-(4-(cyclopropylamino)quinazolin-6-yl)pyridin-2-yl)methyl)-1-phenylmethane sulfonamide]"
18,82,"CCCCC(=O)N(Cc1cccc(-c2cc(F)c3ncnc(NC4CC4)c3c2)c1)C1CC1 [Example 654, N-cyclopropyl-N-(3-(4-(cyclopropylamino)-8-fluoroquinazolin-6-yl)benzyl)pentanamide]"
19,91,"O=C(c1c(F)c(F)c(F)c(F)c1F)N(Cc1cc(-c2ccc3ncnc(NC4CC4)c3c2)ccc1F)C1CC1 [Example 389, N-cyclopropyl-N-(5-(4-(cyclopropylamino)quinazolin-6-yl)-2-fluorobenzyl)-2,3,4,5,6-pentafluorobenzamide]"
20,74,"CC(C)(C)C(=O)N(Cc1cc(-c2ccc3ncnc(NC4CC4)c3c2)ccn1)C1CC1 [Example 828, N-cyclopropyl-N-((4-(4-(cyclopropylamino)quinazolin-6-yl)pyridin-2-yl)methyl)pivalamide]"
21,94,"O=C(c1cccnc1)N(Cc1cc(-c2ccc3ncnc(NC4CC4)c3c2)ccc1F)C1CC1 [Example 367, N-cyclopropyl-N-(5-(4-(cyclopropylamino)quinazolin-6-yl)-2-fluorobenzyl)nicotinamide]"
22,83,"Cc1nc(C(=O)N(Cc2cccc(-c3cc4c(NC5CC5)ncnc4cc3C)c2)C2CC2)cs1 [Example 759, N-cyclopropyl-N-(3-(4-(cyclopropylamino)-7-methylquinazolin-6-yl)benzyl)-2-methylthiazole-4-carboxamide]"
23,87,"CC(C)(C)Nc1ncnc2ccc(-c3ccc(F)c(CN(C(=O)Cc4ccccc4)C4CC4)c3)cc12 [Example 815, N-(5-(4-(tert-butylamino)quinazolin-6-yl)-2-fluorobenzyl)-N-cyclopropyl-2-phenylacetamide]"
24,55,"Cc1cc(C(=O)N(Cc2cc(-c3ccc4ncnc(NC5CC5)c4c3)ccc2Cl)C2CC2)n(C)n1 [Example 776, N-(2-chloro-5-(4-(cyclopropylamino)quinazolin-6-yl)benzyl)-N-cyclopropyl-1,3-dimethyl-1H-pyrazole-5-carboxamide]"
25,90,"CCCC(=O)N(Cc1cccc(-c2ccc3ncnc(NC4CC4)c3c2)c1)C1CC1 [Example 168, N-cyclopropyl-N-[3-(4-cyclopropylamino-quinazolin-6-yl)-benzyl]-butyramide]"
26,93,"Cc1nc(NC2CC2)c2cc(-c3ccc(F)c(CN(C(=O)c4ccccc4C(F)(F)F)C4CC4)c3)ccc2n1 [Example 470, N-cyclopropyl-N-(5-(4-(cyclopropylamino)-2-methylquinazolin-6-yl)-2-fluorobenzyl)-2-(trifluoromethyl)benzamide]"
27,85,"Cc1nc(NC2CC2)c2cc(-c3ccc(F)c(CN(C(=O)c4ccc(F)cc4F)C4CC4)c3)ccc2n1 [Example 524, N-cyclopropyl-N-(5-(4-(cyclopropylamino)-2-methylquinazolin-6-yl)-2-fluorobenzyl)-2,4-difluorobenzamide]"
